Measured values as given in paper PMC6423518 (Bioorganic & medicinal chemistry letters, 2018).
Entries after “also recorded” stand apart in the source; their conditions may differ.

Tested on: MDA-MB-231 cells
Experiment: Acridine orange/ethidium bromide
Type: cell-based, human
Conditions: fluorescence microscopy

SMILES	Cell death / apoptosis by AO/EB staining
COc1cc(/C=C/C(=O)c2c3[nH]c4ccccc4c3cc[n+]2Cc2ccccc2)cc(OC)c1OC.[Br-] [Compound 13g]	induces apoptosis; also recorded: markedly induced cell death
COc1cccc2c1C(=O)c1c(O)c3c(c(O)c1C2=O)C[C@@](O)(C(=O)CO)C[C@@H]3O[C@H]1C[C@H](N)[C@H](O)[C@H](C)O1 [Doxorubicin, reference compound]	morphological changes characteristic of apoptotic cells formation
